Reference: PubChem BioAssay AID198 (DTP/NCI, 2004)
Where “and” joins values, the source holds several entries; their conditions need not be identical. Equal values may be shown once. Toxic doses and inconclusive results are not listed.

System: B16 melanoma ip, C57BL/6 mice, median survival T/C
Assay: NCI In Vivo Anticancer Drug Screen. Data for tumor model B16 Melanoma (intraperitoneal) in C57BL/6 mice
Conditions: endpoint: median survival time, higher = longer survival
Experimental: The antitumor activity of compounds was measured in mice bearing transplantable tumors. Survival or tumor size were measured and the results are expressed as the measurement made in the treated group (T) divided by the measurement made in the vehicle treated control group (C). The tumor model used in this assay is B16 Melanoma (intraperitoneal) in C57BL/6 mice

[1] = dose: 10.0 mg/kg/injection, schedule: Q01DX009 (ip), vehicle: saline
[2] = dose: 20.0 mg/kg/injection, schedule: Q01DX009 (ip), vehicle: saline
[3] = dose: 50.0 mg/kg/injection, schedule: Q01DX009 (ip), vehicle: saline
[4] = dose: 100.0 mg/kg/injection, schedule: Q01DX009 (ip), vehicle: saline
[5] = dose: 200.0 mg/kg/injection, schedule: Q01DX009 (ip), vehicle: saline
[6] = dose: 62.5 mg/kg/injection, schedule: Q01DX009 (ip), vehicle: saline
[7] = dose: 125.0 mg/kg/injection, schedule: Q01DX009 (ip), vehicle: saline
[8] = dose: 6.25 mg/kg/injection, schedule: Q01DX009 (ip), vehicle: saline
[9] = dose: 12.5 mg/kg/injection, schedule: Q01DX009 (ip), vehicle: saline
[10] = dose: 25.0 mg/kg/injection, schedule: Q01DX009 (ip), vehicle: saline
[11] = dose: 3.13 mg/kg/injection, schedule: Q01DX009 (ip), vehicle: saline
[12] = dose: 250.0 mg/kg/injection, schedule: Q01DX009 (ip), vehicle: saline
[13] = dose: 500.0 mg/kg/injection, schedule: Q01DX009 (ip), vehicle: saline
[14] = dose: 7.5 mg/kg/injection, schedule: Q01DX001 (ip), vehicle: saline
[15] = dose: 15.0 mg/kg/injection, schedule: Q01DX001 (ip), vehicle: saline
[16] = dose: 8.0 mg/kg/injection, schedule: Q01DX009 (ip), vehicle: saline
[17] = dose: 16.0 mg/kg/injection, schedule: Q01DX009 (ip), vehicle: saline

## O=c1[nH]c(=O)n(C2CC(O)C(CO)O2)cc1F (configuration not stated)
[1]
  T/C: 113 % of control
[2]
  T/C: 120 % of control
dose: 40.0 mg/kg/injection, schedule: Q01DX009 (ip), vehicle: saline
  T/C: 123 % of control
dose: 80.0 mg/kg/injection, schedule: Q01DX009 (ip), vehicle: saline
  T/C: 154 % of control
dose: 160.0 mg/kg/injection, schedule: Q01DX009 (ip), vehicle: saline
  T/C: 151 % of control

## O=C1CN(CCN2CC(=O)NC(=O)C2)CC(=O)N1
dose: 30.0 mg/kg/injection, schedule: Q01DX009 (ip), vehicle: saline
  T/C: 150 % of control

## CCSCCC(N)C(=O)O (configuration not stated)
[3]
  T/C: 100 % of control
[4]
  T/C: 100 % of control
[5]
  T/C: 90 % of control

## C=CCN(CC=C)c1ncnc2[nH]ncc12
dose: 15.6 mg/kg/injection, schedule: Q01DX009 (ip), vehicle: saline
  T/C: 105 % of control
dose: 31.3 mg/kg/injection, schedule: Q01DX009 (ip), vehicle: saline
  T/C: 100 % of control
[6]
  T/C: 102 % of control
[7]
  T/C: 102 % of control

## CS(=O)(=O)OCCCCOS(C)(=O)=O
dose: 3.12 mg/kg/injection, schedule: Q01DX009 (ip), vehicle: saline
  T/C: 103 % of control
[8]
  T/C: 96 % of control
[9]
  T/C: 106 % of control
[10]
  T/C: 103 % of control

## O=C(O)CCCc1ccc(N(CCCl)CCCl)cc1
[11]
  T/C: 96 % of control and 103 % of control
[8]
  T/C: 100 % of control and 114 % of control
[9]
  T/C: 106 % of control and 112 % of control
[10]
  T/C: 86 % of control

## O=c1[nH]c(=O)c2n[nH]nc2[nH]1
[6]
  T/C: 96 % of control
[7]
  T/C: 100 % of control
[12]
  T/C: 92 % of control
[13]
  T/C: 92 % of control

## CC1=C2C(=CC(C)(C)[C@@H]2O)C(=O)[C@](C)(O)C12CC2
dose: 0.17 mg/kg/injection, schedule: Q01DX009 (ip), vehicle: saline
  T/C: 110 % of control
dose: 0.26 mg/kg/injection, schedule: Q01DX009 (ip), vehicle: saline
  T/C: 106 % of control
dose: 0.4 mg/kg/injection, schedule: Q01DX009 (ip), vehicle: saline
  T/C: 106 % of control
dose: 0.6 mg/kg/injection, schedule: Q01DX009 (ip), vehicle: saline
  T/C: 106 % of control

## O=NN(CCF)C(=O)NC1CCS(=O)(=O)CC1
[14]
  T/C: 212 % of control
[15]
  T/C: 200 % of control
dose: 30.0 mg/kg/injection, schedule: Q01DX001 (ip), vehicle: saline
  T/C: 175 % of control

## N[C@@H](Cc1ccc(N(CCCl)CCCl)cc1)C(=O)O
dose: 1.5 mg/kg/injection, schedule: Q01DX009 (ip), vehicle: saline
  T/C: 170 % of control and 228 % of control
dose: 3.0 mg/kg/injection, schedule: Q01DX009 (ip), vehicle: saline
  T/C: 210 % of control
dose: 6.0 mg/kg/injection, schedule: Q01DX009 (ip), vehicle: saline
  T/C: 226 % of control
dose: 12.0 mg/kg/injection, schedule: Q01DX009 (ip), vehicle: saline
  T/C: 93 % of control

## COc1c(C)c2c(c(O)c1C/C=C(\C)CCC(=O)O)C(=O)OC2
[10]
  T/C: 106 % of control
[3]
  T/C: 113 % of control
[4]
  T/C: 110 % of control
[5]
  T/C: 106 % of control

## CC1OC(O[C@@H]2C=C3CC[C@@H]4[C@H](CC[C@]5(C)[C@@H](c6ccc(=O)oc6)CC[C@]45O)[C@@]3(C)CC2)C(O)C(O)C1O (some centres not stated)
dose: 2.5 mg/kg/injection, schedule: Q01DX009 (sc), vehicle: steriod suspending solution
  T/C: 113 % of control
dose: 5.0 mg/kg/injection, schedule: Q01DX009 (sc), vehicle: steriod suspending solution
  T/C: 97 % of control

## CC1([N+](=O)[O-])COP(=O)(NC2CCCC2)OC1 (configuration not stated)
[3]
  T/C: 100 % of control
[4]
  T/C: 96 % of control
[5]
  T/C: 96 % of control

## COc1ccc2c3c(c4cc(OC)c(OC)cc4c2c1)C[C@H]1CCCCN1C3
dose: 0.13 mg/kg/injection, schedule: Q01DX009 (ip), vehicle: saline
  T/C: 100 % of control
dose: 0.25 mg/kg/injection, schedule: Q01DX009 (ip), vehicle: saline
  T/C: 100 % of control and 119 % of control
dose: 0.5 mg/kg/injection, schedule: Q01DX009 (ip), vehicle: saline
  T/C: 113 % of control
dose: 1.0 mg/kg/injection, schedule: Q01DX009 (ip), vehicle: saline
  T/C: 90 % of control

## O=c1[nH]cc(F)c(=O)[nH]1
dose: 5.0 mg/kg/injection, schedule: Q01DX009 (ip), vehicle: saline
  T/C: 113 % of control
[1]
  T/C: 120 % of control
[2]
  T/C: 123 % of control

## O=C(Nc1ccc(C2=NCCN2)cc1)c1ccc(C(=O)Nc2ccc(C3=NCCN3)cc2)cc1
[16]
  T/C: 100 % of control
[17]
  T/C: 92 % of control and 109 % of control
dose: 32.0 mg/kg/injection, schedule: Q01DX009 (ip), vehicle: saline
  T/C: 92 % of control and 106 % of control
dose: 64.0 mg/kg/injection, schedule: Q01DX009 (ip), vehicle: saline
  T/C: 96 % of control and 106 % of control

## CC1=C2C(=C[C@@](C)(CO)[C@@H]2O)C(=O)[C@](C)(O)C12CC2
dose: 0.1 mg/kg/injection, schedule: Q01DX009 (ip), vehicle: saline
  T/C: 113 % of control
dose: 0.2 mg/kg/injection, schedule: Q01DX009 (ip), vehicle: saline
  T/C: 113 % of control

## C[C@]12C=CC(=O)C=C1CC[C@@H]1[C@@H]2C(=O)C[C@@]2(C)[C@H]1CC[C@]2(O)C(=O)CO
[9]
  T/C: 100 % of control
[10]
  T/C: 100 % of control
[4]
  T/C: 88 % of control

## O=NN(CCCl)C(=O)NCCCl
dose: 7.5 mg/kg/injection, schedule: Q01DX009 (ip), vehicle: saline
  T/C: 164 % of control and 213 % of control
dose: 15.0 mg/kg/injection, schedule: Q01DX009 (ip), vehicle: saline
  T/C: 121 % of control

## OC1CCCC2CCC[N-]C12.OC1CCCC2CCC[N-]C12.[O]=[V][OH] (configuration not stated)
dose: 6.25 mg/kg/injection, schedule: Q01DX009 (ip), vehicle: saline with Tween-80
  T/C: 107 % of control
dose: 12.5 mg/kg/injection, schedule: Q01DX009 (ip), vehicle: saline with Tween-80
  T/C: 107 % of control
dose: 25.0 mg/kg/injection, schedule: Q01DX009 (ip), vehicle: saline with Tween-80
  T/C: 107 % of control

## COc1cc([C@@H]2c3cc4c(cc3[C@H](O)[C@H]3COC(=O)[C@H]23)OCO4)cc(OC)c1OC
dose: 2.0 mg/kg/injection, schedule: Q01DX009 (ip), vehicle: saline
  T/C: 106 % of control
dose: 4.0 mg/kg/injection, schedule: Q01DX009 (ip), vehicle: saline
  T/C: 120 % of control
[16]
  T/C: 113 % of control
[17]
  T/C: 96 % of control

## [N-]=[N+]=CC(=O)NCC(=O)NN
[3]
  T/C: 107 % of control
[4]
  T/C: 110 % of control
[5]
  T/C: 121 % of control
dose: 400.0 mg/kg/injection, schedule: Q01DX009 (ip), vehicle: saline
  T/C: 117 % of control

## O=NN(CCCl)C(=O)Nc1ccc(CCCl)cc1
[11]
  T/C: 267 % of control
[8]
  T/C: 217 % of control

## O=P1(N(CCCl)CCCl)NCCCO1 (configuration not stated)
[10]
  T/C: 93 % of control
[4]
  T/C: 90 % of control

## O=C(N[C@H](CO)[C@H](O)c1ccc([N+](=O)[O-])cc1)C(Cl)Cl
[6]
  T/C: 106 % of control and 114 % of control
[7]
  T/C: 106 % of control and 107 % of control
[12]
  T/C: 106 % of control and 117 % of control
[13]
  T/C: 106 % of control and 107 % of control

## Nc1ncnc2c1ccn2C1OC(CO)C(O)C1O (configuration not stated)
dose: 0.32 mg/kg/injection, schedule: Q01DX009 (ip), vehicle: saline
  T/C: 93 % of control
dose: 0.63 mg/kg/injection, schedule: Q01DX009 (ip), vehicle: saline
  T/C: 96 % of control
dose: 1.25 mg/kg/injection, schedule: Q01DX009 (ip), vehicle: saline
  T/C: 100 % of control

## CC(=O)OC(C)(C)/C=C/C(=O)[C@](C)(O)[C@H]1[C@H](O)C[C@@]2(C)[C@@H]3CC=C4[C@@H](C[C@H](O)C(=O)C4(C)C)[C@]3(C)C(=O)C[C@]12C
dose: 0.25 mg/kg/injection, schedule: Q01DX009 (ip), vehicle: saline with Tween-80
  T/C: 92 % of control
dose: 0.5 mg/kg/injection, schedule: Q01DX009 (ip), vehicle: saline with Tween-80
  T/C: 100 % of control
dose: 1.0 mg/kg/injection, schedule: Q01DX009 (ip), vehicle: saline with Tween-80
  T/C: 92 % of control

## CC1CCC(NC(=O)N(CCCl)N=O)CC1 (configuration not stated)
dose: 1.9 mg/kg/injection, schedule: Q01DX001 (ip), vehicle: saline
  T/C: 100 % of control
dose: 3.75 mg/kg/injection, schedule: Q01DX001 (ip), vehicle: saline
  T/C: 112 % of control
[14]
  T/C: 103 % of control
[15]
  T/C: 115 % of control
